Measurements as given in US20260191889A1, “TREHALOSE FOR TREATING HUNTINGTON'S DISEASE” (GLD Debt Acquisition 2025-1, priority 2022, published 2026).

Columns and labels:
[1] = system: EM48 (huntingtin protein; mHTT aggregates); assay: EM48 immunohistochemistry in brain of R6/2 mice; format: in vivo, Mus musculus; settings: MT-treated vs untreated transgenic R6/2 mice
Description: (§1) Cryosectioning—Cryosectioning was performed to striatal (left hemisphere) (Bregma +1.30 mm to −0.8 mm from Bregma, containing the infusion site at +0.5 mm) region and sections were collected as 20 μm thick sections on slides. A series of sections consisted of 8 sections with an interval of 300 μm in-between each section. A total of 5 series were collected from the target region using subsequent slides. For phase I, Series 1 & 3 were used for IHC analysis of EM48, series 2 was used for Darpp-32, series 4 was used for Iba1+GFAP and Series 5 was used for piloting and negative controls. For phase II, A total of 6 series were collected from the target region using subsequent slides. Series 1 was used for IHC analysis of EM48, series 2 was used for Darpp-32, series 4 was used for Iba1+GFAP. Series 5 was collected as spare samples and series 6 was used for piloting and negative controls. […]
(§2) Antigen expression analyses—The stained sections were scanned with the Olympus VS120 slide scanner using the proper fluorescent or brightfield channels. The regions of interest (ROIs) (striatum/cortex) were analyzed for positive immunostaining of the respective targets (EM48, DARPP-32, GFAP and Iba1) applying the VIS—Visiopharm Integrator System (Visiopharm, Denmark).
(§3) Positive staining of the respective antigens was detected by applying a suitable threshold which recognizes only truly positive staining. […]

[2] = system: DARPP-32; assay: DARPP-32 immunohistochemistry in brain of R6/2 mice; format: in vivo, Mus musculus; settings: MT-treated vs untreated transgenic R6/2 mice, FIG. 1
Description: as §1, §2, §3

[3] = system: GFAP; assay: GFAP immunohistochemistry in brain of R6/2 mice; format: in vivo, Mus musculus; settings: MT-treated vs untreated transgenic R6/2 mice, FIG. 4
Description: as §1, with “Iba1+GFAP.” for “Iba1+GFAP. Series 5 was collected as spare samples and series 6 was used for piloting and negative controls.”
For fluorescence immunohistochemistry (GFAP and Iba-1) the following general protocol was applied: […]
as §2, §3

[4] = Safety profile from previous clinical trials of trehalose injection; format: in vivo, human; settings: metabolized by trehalase enzymes into 2 glucose molecules
Excerpt: Risks of study participation also includes the risk of an infusion reaction or infusion site reactions. […] If needed, the use of an implanted venous access device (i.e., Mediport) or percutaneous indwelling catheter is permitted; however, if small caliber indwelling catheters in peripheral vessels is required, they should be for single use only. Additional risks include those risks related to venipuncture (e.g., hematoma, bleeding, pain, infection), which are low, and the risk of progression of disease for participants assigned to receive.

[5] = administered orally in humans; cleaved by gut trehalase; cited from earlier work
[6] = system: neurofilament light chain (NfL) protein; assay: NfL concentration in blood serum of a subject with HD on weekly IV trehalose; format: in vivo, human; settings: subject 02-001 (HD)
Description: This study consisted of a 2-week screening period, a 24-week open-label treatment period, and a 2-week safety follow-up period. Eligible subjects received substantially purified trehalose, administered as a once weekly IV infusion over 60 minutes±5 min for volumes≤600 mL or 90 minutes±5 min for volumes>600 mL. The total volume of the infusion was based on the weight of the subject and a dose of 0.75 g trehalose per kg of subject weight (g/kg). An additional 52 weeks of open-label trehalose treatment was planned for consenting subjects who were determined to be medically appropriate after their completion of the primary 24-week open-label treatment period.
Blood samples were obtained from subjects at the screening/baseline and during week 12 and week 24 for analyses. Blood serum was to determine the concentration of neurofilament light chain (NfL) protein in blood serum before and after initiation of trehalose treatment. Nfl concentrations in blood serum were measured using a Simoa® NF-light™ Advantage Kit by Quanterix. Higher concentrations of Nfl in subject blood serum is an indicator of clinical severity of HD, and lower concentrations compared to concentrations of the same subject indicates reversal or slowing of HD progression.

In the case of `OC[C@H]1O[C@H](O[C@H]2O[C@H](CO)[C@@H](O)[C@H](O)[C@H]2O)[C@H](O)[C@@H](O)[C@@H]1O` [MT, trehalose], the “levels of EM48 in the cortex (IHC, positive cells/mm^2)” value ([1]; FIG. 2) is reported as “lower levels”, the “levels of EM48 in the striatum (IHC, positive cells/mm^2)” value ([1]; FIG. 3) is reported as “lower levels” and the “levels of DARPP-32 in the striatum (IHC, positive cells/mm^2)” value [2] is reported as “lower levels”. For the same compound, the “levels of GFAP in the striatum (IHC, % staining area)” value [3] was “lower levels”, the active metabolites [4] was “no active metabolites” and the “trehalose reaching systemic circulation” value [5] was less than 0.5%. For the same compound, the “NfL Protein Concentration” value ([6]; Screening / Day 0 (baseline before treatment)) was 21.20 pg/mL, the “NfL Protein Concentration” value ([6]; Week 12 / Day 84, 0.75 g/kg IV once weekly) was 17.55 pg/mL and the “NfL Protein Concentration” value ([6]; Week 24 / Day 168, 0.75 g/kg IV once weekly) was 19.95 pg/mL.
